Marks after values point to notes of the source that are not given here.
Experiments:
[1] = tested on: cultured cardiocytes of the rats (hypertrophy induced by NE); test: protein content in rat cardiocyte hypertrophy induced by norepinephrine (Lowry method); assay type: cell-based, Wistar rats; conditions: for Protein content: 24 h, n = 6, x ± s; for effect on protein content in the hypertrophic cardiocyte induced by NE: polypeptide at 10 nmol/L
Excerpt: 1. Wistar rats 1-3 day postpartum (purchased from Center for Experimental Animal, Third Military Medical University) was used, sacrificed by cervical dislocation, and fixed on a dissecting table. The ventral skin of the corpus was disinfected with 2% iodine tincture and then 75% ethanol. The heart was removed, cutted into pieces of about 1-3 mm^3, digested repeatedly with a digestion solution containing 0.08% trypase, 0.02% EDTA, and 0.05% collogen. The cells were collected in DMEM containing 10% fetal bovine serum and cultured in an incubator at 37° C., 5% CO2.
2. The cardiocytes cultured for 48 h were subjected to replacement of the DMEM with a serum-free DMEM culture media and further cultured for 24 h before addition of a drug according to the following groups: • Normal control group; 10 μl of PBS was added. • Norepinephrine group; norepinephrine (NE, Serva Corporation, USA) was added at 1 μmol/L. • Polypeptide-dosed group: NE was added, while the corresponding polypeptide drug was added at 10 nmol/L.
(§1) 3. After addition of the drug, the cells were further cultured for 24 h and then the culture media was discarded. The culture was washed with PBS, followed by adding 0.5 ml of 5% trichloracetic acid per well, and left at 4° C. for 1 h. The precipitate was dissolved in 1 ml of 0.1 mol/L NaOH. The protein content was determined by Lowry method.

[2] = tested on: hypertrophic cardiocyte induced by angiotensin II; test: protein content in rat cardiocyte hypertrophy induced by angiotensin II (Lowry method); assay type: cell-based; conditions: for effect on protein content in the cardiocyte in comparison with Ang II: polypeptide 10 nmol/L + Ang II; for Protein content: 24 h, n = 6, x ± s
Experimental: 1. The cardiocytes were cultured for 48 h in the same way as described above, then subjected to replacement of the DMEM with a serum-free DMEM culture media, and further cultured for 24 h before addition of a drug according to the following groups: normal control group: 10 μl of PBS was added; Ang II group; Ang II was added at 1 μmol/L; serial polypeptide-dosed group: Ang II was added, while each of the dodecapeptide, pentadecapeptide, heptacosapeptide, pantapentacontapeptide was added at 10 nmol/L.
as §1, with “2.” for “3.”

[3] = tested on: myocardial hypertrophy in rats induced by norepinephrine; test: myocardial hypertrophy in rats induced by norepinephrine; assay type: in vivo, Wistar rats; conditions: for HI (heart index) / HW (heart weight) / LVI (left ventricular index or myocardial hypertrophy index) / LVW (left ventricular weight): n = 6, x ± s
Experimental: Thirty of Wistar rats were selected and assigned into five groups with 6 rats per group. The rats in the control group were administrated with 0.1% ascorbic acid-3 mg % potassium sodium tartrate-physiological saline; the rats in the model group were administrated with 0.1% ascorbic acid-6 mg % norepinephrine bitartrate-physiological saline; the rats in the three dosing groups were administrated with the pentadecapeptide, the heptacosapeptide, and the pantapentacontapeptide at 15 μg/kg respectively, while administration of norepinephrine. The dosing volume for each group was 33 ml/kg, and the administration was performed consecutively by ip, bid, for 20 days. At that time, the heart and left ventricle were weighed.

[4] = tested on: myocardial hypertrophy in rats induced by aortic coarctation; test: myocardial hypertrophy in rats induced by aortic coarctation; assay type: in vivo, Wistar rats; conditions: 15 μg/kg ip once a day, 3 weeks post operation; x ± SEM
Excerpt: Healthy male Wistar rats (purchased from Center for Experimental Animals, Third Military Medical University) were randomly assigned into the following groups: the sham-operation group, operation model group (SRS), and polypeptide-dosing group. Before the operation, animals were fasted overnight and given Ad libitum access to water, and then anesthetized with pentobarbital sodium and underwent celiotomy. The abdominal aorta was separated, and a […] needle (0.80 mm outer diameter) was fastened along the abdominal aorta above the right renal artery with a silk suture before the needle was quickly removed. Then, the abdomen was closed by suturation. The rats in the sham operation group were subjected to the same treatment as the aforementioned, except no ligation with silk suture. From the first day post operation, the rats in the sham operation control group and in the operation model group were administrated with physiological saline at 7.5 ml/kg, ip, once a day; the rats in the dosing group were administrated with the pentadecapeptide, heptacosapeptide, and pantapentacontapeptide at 15 μg/kg respectively, ip, once a day. Rats were reared routinely for 3 weeks and then sacrificed. The heart was removed by thoracotomy, washed with the chilled physiological saline to get rid of blood stain, blotted with filter paper. The heart and the left ventricle were weighed on a scale.

[5] = tested on: myocardial hypertrophy in mice induced by norepinephrine; test: myocardial hypertrophy in mice induced by norepinephrine; assay type: in vivo; conditions: for HI (heart index) / HW (heart weight) / LVI (left ventricular index or myocardial hypertrophy index) / LVW (left ventricular weight): x ± s
Experimental: Fifty of the mice used in the experiment (purchased from Center for Experimental Animals, Third Military Medical University) was assigned into five groups with 10 mice per group. The mice in the control group were administrated with 0.1% ascorbic acid-3 mg % potassium sodium tartrate-physiological saline, The mice in the model group were administrated with 0.1% ascorbic acid-6 mg % norepinephrine bitartrate-physiological saline (equivalent to 1.5 mg/kg NE); The mice in three dosing groups were administrated with the pentadecapeptide, the heptacosapeptide, and the pantapentacontapeptide at 30 μg/kg respectively, while administration of 0.1% ascorbic acid—6 mg % norepinephrine bitartrate—physiological saline. The administration was performed consecutively by intraperitoneal injection (ip), twice a day (bid), for 15 days. The dosing volumes for each group were 50 ml/kg. Then, the animals were sacrificed by cervical dislocation. The heart was removed by thoracotomy, washed with the chilled physiological saline to get rid of blood stain, blotted with filter paper, weighed on a scale. The atriums and the right ventricle were carefully removed (with the interventricular septum left), and the left ventricle was weighed.

[6] = tested on: rats with spontaneous hypertension (SHR); test: myocardial remodeling and blood pressure in rats with spontaneous hypertension (SHR); assay type: in vivo, rat; conditions: polypeptide 30 μg/kg ip bid, SHR, x ± s, n = 6
Experimental: 1. Thirty 13-week-old rats with spontaneous hypertension (SHR, purchased from Beijing Vital River Laboratory Animal Technology Co. Ltd., Beijing) were selected and randomly assigned into five groups with 6 rats per group:
SHR model group (Vehicle): 0.9% physiological saline, intraperitoneal injection at a dosage of 5 ml/kg, bid.
Positive control group (losartan): potassium losartan at a dosage of 6 mg/kg, intragastric administration, qd.
The pentadecapeptide group: administration of the pentadecapeptide at a dosage of 30 μg/kg by intraperitoneal injection, bid.
The heptacosapeptide group: administration of the heptacosapeptide at a dosage of 30 μg/kg by intraperitoneal injection, bid.
The pantapentacontapeptide group: administration of the pantapentacontapeptide at a dosage of 30 μg/kg by intraperitoneal injection, bid.
Six of INKY (Wistar-Kyoto) rats (purchased from Center for Experimental Animals, Third Military Medical University) were additionally selected as the normal control.
2. Intervention with the drug was performed consecutively for eight weeks (from Week 14 to Week 21). The body weights of all the tested rats were obtained once every two weeks, and the administration dosage was adjustedbased on body weights.

[7] = clinical dosage converted into the dosage in the mouse; cited from earlier work
[8] = polypeptide 10 nmol/L together with NE 1 μmol/L
[9] = polypeptide 10 nmol/L together with Ang II 1 μmol/L
[10] = polypeptide 15 μg/kg ip bid 20 days with norepinephrine
[11] = polypeptide 30 μg/kg ip bid 15 days with NE
[12] = NE model group: 6 mg % norepinephrine bitartrate, 33 ml/kg ip bid 20 days, alone
[13] = NE model group: equivalent to 1.5 mg/kg NE ip bid 15 days, alone

## Dicosapeptide: SEQ ID NO: 7 (icosapeptide), obtained by deleting amino acid residues 1 to 35 at the N-terminal of SEQ ID NO: 1 (VFAAVKDTILQLNLKEYNLV; listed as Homo sapiens)
[1]; [8]
  Protein content: 103.4 ± 11.4 μg/10^5 cells
[1]
  effect on protein content in the hypertrophic cardiocyte induced by NE: significantly decrease

## Dodecapeptide: SEQ ID NO: 10, obtained by deleting amino acid residues 1 to 43 at the N-terminal of SEQ ID NO: 1 (ILQLNLKEYNLV; listed as Homo sapiens)
[2]
  effect on protein content in the cardiocyte in comparison with Ang II: no manifest effect
[2]; [9]
  Protein content: 144.0 ± 11.7 μg/10^5 cells
[1]; [8]
  Protein content: 113.3 ± 11.6 μg/10^5 cells
[1]
  effect on protein content in the hypertrophic cardiocyte induced by NE: no manifest effect

## Heptadecapeptide: SEQ ID NO: 8, obtained by deleting amino acid residues 1 to 38 at the N-terminal of SEQ ID NO: 1 (AVKDTILQLNLKEYNLV; listed as Homo sapiens)
[1]; [8]
  Protein content: 96.4 ± 10.5 μg/10^5 cells
[1]
  effect on protein content in the hypertrophic cardiocyte induced by NE: significantly decrease

## Pentadecapeptide: SEQ ID NO: 9, obtained by deleting amino acid residues 1 to 40 at the N-terminal of SEQ ID NO: 1 (KDTILQLNLKEYNLV; listed as Homo sapiens)
[3]; 15 μg/kg ip bid 20 days with norepinephrine
  effect on the left ventricular index: significantly decrease
[3]; [10]
  HI (heart index): 3.580 ± 0.226 g/kg
  HW (heart weight): 0.673 ± 0.055 g
  LVI (left ventricular index or myocardial hypertrophy index): 2.606 ± 0.154 g/kg
  LVW (left ventricular weight): 0.490 ± 0.038 g
[2]
  effect on protein content in the cardiocyte in comparison with Ang II: decrease the protein content in the cardiocyte in varying degrees
[2]; [9]
  Protein content: 130.6 ± 10.79 μg/10^5 cells
[4]
  HI: 3.39 ± 0.10 mg/g
  HW: 706 ± 30.8 mg
  LVI: 2.01 ± 0.06 mg/g
  LVW: 418 ± 12.3 mg
[1]; [8]
  Protein content: 104.3 ± 12.6 μg/10^5 cells
[1]
  effect on protein content in the hypertrophic cardiocyte induced by NE: significantly decrease
[5]; 30 μg/kg ip bid 15 days with NE, P>0.05
  decrease of heart weight: 9.9%
[5]; [11]
  HI (heart index): 4.27 ± 0.42 mg/g
  HW (heart weight): 100.9 ± 12.8 mg
  LVI (left ventricular index or myocardial hypertrophy index): 3.16 ± 0.39 mg/g
  LVW (left ventricular weight): 74.7 ± 9.25 mg
[6]; 0 w
  Systolic blood pressure of artery: 177.3 ± 6.42 mmHg
[6]; 2 w
  Systolic blood pressure of artery: 190.4 ± 7.75 mmHg
[6]; 4 w
  Systolic blood pressure of artery: 200.2 ± 4.13 mmHg
[6]; 6 w
  Systolic blood pressure of artery: 217.1 ± 8.82 mmHg
[6]; 8 w
  Systolic blood pressure of artery: 224.1 ± 6.37 mmHg
[6]; echocardiography
  EF (ejection fraction): 89.4 ± 3.90%
  FS (shortening fraction): 55.1 ± 4.33%
  IVST (intervertricular septum thickness): 1.62 ± 0.20 mm
  LAD (left atrium sinistrum diameter): 3.39 ± 0.33 mm
  LVEDD (left ventricular end diastolic diameter): 5.38 ± 0.31 mm
  LVESD: 2.41 ± 0.35 mm
  PWT (left ventricular posterior wall thickness): 1.96 ± 0.16 mm
  SV (stroke volume): 0.32 ± 0.05 mL
[6]; eight weeks
  HI: 3.44 ± 0.05 mg/g
  HW: 1055 ± 30 mg
  LVI: 2.46 ± 0.04 mg/g
  LVW: 775 ± 28 mg
[6]
  CSA (cross section area of the cardiocyte): 329 ± 24** μm^2
  TDM (trans diameter of the cardiocyte): 14.88 ± 2.56 μm

## C[C@H](CS)C(=O)N1CCC[C@H]1C(=O)O [captopril]
[7]
  ratio of mouse LD50/routine dosage: 388

## NC[C@H](O)c1ccc(O)c(O)c1 [NE, norepinephrine, reference compound]
[3]; [12]
  HI (heart index): 3.674 ± 0.348 g/kg
  HW (heart weight): 0.690 ± 0.078 g
  LVI (left ventricular index or myocardial hypertrophy index): 2.954 ± 0.225 g/kg
  LVW (left ventricular weight): 0.555 ± 0.055 g
[1]; NE group: NE 1000 nmol/L alone
  Protein content: 121.0 ± 13.2 μg/10^5 cells
[5]; [13]
  HI (heart index): 4.82 ± 0.44 mg/g
  HW (heart weight): 112.1 ± 12.1 mg
  LVI (left ventricular index or myocardial hypertrophy index): 3.69 ± 0.36 mg/g
  LVW (left ventricular weight): 85.6 ± 9.16 mg

## angiotensin II (DRVYIHPF; Angiotensin-2; UniProt P01019 25-32, looked up) [Ang II, inducer of cardiocyte hypertrophy, reference compound]
[2]; Ang II added alone, vs 113.9±7.48 normal control, p<0.01
  protein content in the cardiocyte: 143.2 ± 5.49 µg
[2]; Ang II group: Ang II 1000 nmol/L alone
  Protein content: 143.2 ± 5.49 μg/10^5 cells
